Here are results for 54 compounds from patent US20070010489A1 (priority 2002, published 2007).

SMILES strings stand for the structures.

The subject of the first experiment is wild-type HIV-1 strain IIIB. Nature of the experiment: microbe, parasite or virus in culture. As to conditions: Human immunodeficiency virus 1, IIIB. It counts as cell-based.
For `COc1ccc(S(=O)(=O)N(CC(C)C)CC(O)C(CC2=CCN(CCP(=O)(OC)OC)CC2)NC(=O)OC2COC3OCCC23)cc1` (stereo not drawn), the EC50 lay in the range of 50 to 500 nM. Same read-out and setting: to `CC(C)CN(CC(O)C(Cc1ccc(OCP(=O)(OCc2ccccc2)OCc2ccccc2)cc1)NC(=O)OC1COC2OCCC12)S(=O)(=O)N1CCN(C)CC1` (stereo not drawn) belongs 50 to 500 nM. For the compound `CC(C)CN(CC(O)C(Cc1ccccc1)NC(=O)OC1COC2OCCC12)S(=O)(=O)c1cccc(O)c1` (stereo not drawn), the EC50 is < 50 nM.

As to `COc1ccc(S(=O)(=O)N(CC2CCN(C=O)CC2)CC(O)C(Cc2ccc(OCP(=O)(OCc3ccccc3)OCc3ccccc3)cc2)NC(=O)OC2COC3OCCC23)cc1` (stereo not drawn), the EC50 lay within 50 to 500 nM. For the compound `CCOP(=O)(CNc1ccc(CC(NC(=O)OC2COC3OCCC23)C(O)CN(CC(C)C)S(=O)(=O)c2ccc(OC)cc2)cc1)OCC` (stereo not drawn), the EC50 is < 50 nM. `CCOP(=O)(COc1cc(S(=O)(=O)N(CC(C)C)CC(O)C(Cc2ccccc2)NC(=O)OC2COC3OCCC23)ccc1OC)OCC` (stereo not drawn) returned an EC50 of 50 to 500 nM. `CC(C)CN(CC(O)C(Cc1ccc(O)cc1)NC(=O)OC1COC2OCCC12)S(=O)(=O)c1ccc(N)cc1` (stereo not drawn) [OH, p-NH2] returned an EC50 of 50 to 500 nM. Regarding `CCOP(=O)(CON=Cc1ccc(CC(NC(=O)OC2COC3OCCC23)C(O)CN(CC(C)C)S(=O)(=O)c2ccc(OC)cc2)cc1)OCC` (stereo not drawn) [drawing 1781 R1=Et R2=Et], the EC50 is < 50 nM. The same measure, in the same setting: for `COc1ccc(S(=O)(=O)N(CC(C)C)CC(O)C(Cc2ccc(OCP(=O)(OCc3ccccc3)OC(C)C(=O)OCc3ccccc3)cc2)NC(=O)OC2COC3OCCC23)cc1` (stereo not drawn) [drawing 1775 R1=OBn R2=Lac-Bn] the value was 50 to 500 nM; for `CCOP(=O)(Cc1ccc(N(C)CC(NC(=O)OC2COC3OCCC23)C(O)CN(CC(C)C)S(=O)(=O)c2ccc(OC)cc2)cc1)OCC` (stereo not drawn), < 50 nM; for `CCCCOC(=O)C(C)OP(=O)(COc1ccc(CC(NC(=O)OC2COC3OCCC23)C(O)CN(CC(C)C)S(=O)(=O)c2cccc(N)c2)cc1)Oc1ccccc1` (stereo not drawn), 50 to 500 nM. Regarding `CCOP(=O)(COc1ccc(CC(NC(=O)OC2COC3OCCC23)C(O)CN(CC(C)C)S(=O)(=O)c2ccc([N+](=O)[O-])cc2)cc1)OCC` (stereo not drawn), the EC50 is < 50 nM. With `CCOP(=O)(CN1CC=C(CC(NC(=O)OC2COC3OCCC23)C(O)CN(CC(C)C)S(=O)(=O)c2ccc(OC)cc2)CC1)OCC` (stereo not drawn), the EC50 is < 50 nM. The same measure, in the same setting: to `CC(C)CN(CC(O)C(Cc1ccc(OCCN(C)C)cc1)NC(=O)OC1COC2OCCC12)S(=O)(=O)c1ccc(OCP(=O)(O)O)cc1` (stereo not drawn) [OC2H4NMe2, OH] belongs 500 to 5000 nM. Turning to `CC(C)CN(CC(O)C(Cc1ccc(OCP(=O)(OCc2ccccc2)OCc2ccccc2)cc1)NC(=O)OC1COC2OCCC12)C(=O)OC(C)(C)C` (stereo not drawn), the EC50 was in the range of 50 to 500 nM. On to `COc1ccc(S(=O)(=O)N(CC(C)C)C[C@@H](OP(=O)(O)O)[C@H](Cc2ccccc2)NC(=O)O[C@H]2CO[C@H]3OCC[C@H]32)cc1` [Phosphate Prodrug of 94-003], for which the EC50 is < 50 nM.

For the compound `CCOP(=O)(Cc1ccc(NCC(NC(=O)OC2COC3OCCC23)C(O)CN(CC(C)C)S(=O)(=O)c2ccc(OC)cc2)cc1)OCC` (stereo not drawn), the EC50 was < 50 nM. As for `CC(C)CN(CC(O)C(Cc1ccccc1)NC(=O)OC1COC2OCCC12)S(=O)(=O)c1cccc(OCP(=O)(O)O)c1` (stereo not drawn), the EC50 was in the range of 50 to 500 nM. For the compound `COc1ccc(S(=O)(=O)N(CC(C)C)CC(O)C(Cc2ccc(OCc3ccccc3)cc2)NC(=O)OC2COC3OCCC23)cc1` (stereo not drawn), the EC50 was < 50 nM. As to `CCOP(=O)(CCNCc1ccc(CC(NC(=O)OC2COC3OCCC23)C(O)CN(CC(C)C)S(=O)(=O)c2ccc(OC)cc2)cc1)OCC` (stereo not drawn) [drawing 1779 R1=Et R2=Et], the EC50 was < 50 nM. The same measure, in the same setting: for `CCOP(=O)(COc1ccc(CC(NC(=O)OC2COC3OCCC23)C(O)CN(CC(C)C)S(=O)(=O)c2ccc(N)cc2)cc1)OCC` (stereo not drawn) the value was < 50 nM; for `CCOP(=O)(COC1CCN(CC(NC(=O)OC2COC3OCCC23)C(O)CN(CC(C)C)S(=O)(=O)c2ccc(OC)cc2)CC1)OCC` (stereo not drawn), 50 to 500 nM; for `CC(C)CN(CC(O)C(Cc1ccc(OCP(=O)(OCc2ccccc2)OCc2ccccc2)cc1)NC(=O)OC1COC2OCCC12)S(=O)(=O)c1ccc(N)cc1` (stereo not drawn), < 50 nM. In the case of `CC(C)CN(C[C@@H](OP(=O)(O)O)[C@H](Cc1ccccc1)NC(=O)O[C@H]1CCOC1)S(=O)(=O)c1ccc(N)cc1` [Phosphate Prodrug of Ampenavir], the EC50 lay within 50 to 500 nM. `Cc1ccc(C(=O)NC(Cc2ccc(OCP(=O)(OCc3ccccc3)OCc3ccccc3)cc2)C(O)CN(CC(C)C)S(=O)(=O)c2ccc(N)cc2)cc1O` (stereo not drawn) displayed an EC50 of 50 to 500 nM. Same read-out and setting: for `CCOP(=O)(COc1ccc(S(=O)(=O)N(CC(C)C)CC(O)C(Cc2ccc(N(C)C)cc2)NC(=O)OC2COC3OCCC23)cc1)OCC` (stereo not drawn) [NMe2, OEt] the value was < 50 nM. `CC(C)CN(C[C@@H](O)[C@H](Cc1ccccc1)NC(=O)O[C@H]1CO[C@H]2OCC[C@H]21)S(=O)(=O)c1ccc(OCP(=O)(Oc2ccccc2)O[C@@H](C)C(=O)OC(C)C)cc1` (stereo partly drawn) [OPh, Lac-iPr]: the EC50 fell in the range of 500 to 5000 nM. The same measure, in the same setting: to `CC(C)CN(CC(O)C(Cc1ccc(OCCN(C)C)cc1)NC(=O)OC1COC2OCCC12)S(=O)(=O)c1ccc(OCP(=O)(OCc2ccccc2)OCc2ccccc2)cc1` (stereo not drawn) [OC2H4—NMe2, OBn] belongs 50 to 500 nM; to `CCOP(=O)(COc1ccc(CC(NC(=O)OC2COC3OCCC23)C(O)CN(CC(C)C)S(=O)(=O)c2cccc(N)c2)cc1)OCC` (stereo not drawn), 50 to 500 nM. `CC(C)CN(CC(O)C(Cc1ccc(OCP(=O)(OCc2ccccc2)OCc2ccccc2)cc1)NC(=O)OC1COC2OCCC12)S(=O)(=O)c1cccc(N)c1` (stereo not drawn): the EC50 is < 50 nM. As to `CCOP(=O)(CCC1=CCN(CC(NC(=O)OC2COC3OCCC23)C(O)CN(CC(C)C)S(=O)(=O)c2ccc(OC)cc2)CC1)OCC` (stereo not drawn), the EC50 was < 50 nM. As for `CC(C)CN(CC(O)C(Cc1ccccc1)NC(=O)OC1COC2OCCC12)S(=O)(=O)c1ccc(O)cc1` (stereo not drawn), the EC50 was < 50 nM. Take `COc1ccc(S(=O)(=O)N(CC(C)C)CC(O)C(Cc2ccc(NCP(=O)(OCc3ccccc3)OCc3ccccc3)cc2)NC(=O)OC2COC3OCCC23)cc1` (stereo not drawn): the EC50 is < 50 nM.

As to `CC(C)CN(CC(O)C(Cc1ccc(OCP(=O)(OCc2ccccc2)OCc2ccccc2)cc1)NC(=O)OC1COC2OCCC12)S(=O)(=O)c1ccc(C#N)cc1` (stereo not drawn), the EC50 was < 50 nM. Same read-out and setting: to `CCOP(=O)(COc1cc(S(=O)(=O)N(CC(C)C)CC(O)C(Cc2ccccc2)NC(=O)OC2COC3OCCC23)ccc1O)OCC` (stereo not drawn) belongs 50 to 500 nM; to `CC(C)CN(CC(O)C(Cc1ccc(OCP(=O)(OCc2ccccc2)OCc2ccccc2)cc1)NC(=O)OC1COC2OCCC12)S(=O)(=O)c1ccc(C(F)(F)F)cc1` (stereo not drawn), < 50 nM. As for `CC(C)CN(CC(O)C(Cc1ccc(OCP(=O)(OCc2ccccc2)OCc2ccccc2)cc1)NC(=O)OC1COC2OCCC12)S(=O)(=O)c1ccc(OC(F)(F)F)cc1` (stereo not drawn), the EC50 is < 50 nM. Same read-out and setting: to `CCNc1ccc(S(=O)(=O)N(CC(C)C)CC(O)C(Cc2ccc(OCP(=O)(OCC)OCC)cc2)NC(=O)OC2COC3OCCC23)cc1` (stereo not drawn) belongs < 50 nM. Compound `CC(C)CN(CC(O)C(Cc1ccc(O)cc1)NC(=O)OC1COC2OCCC12)S(=O)(=O)c1ccc(OCP(=O)(OCc2ccccc2)OCc2ccccc2)cc1` (stereo not drawn) [OH, OBn] had an EC50 of 50 to 500 nM. As to `COc1ccc(S(=O)(=O)N(CC(C)C)CC(O)C(CC2=CCN(CCP(=O)(OCc3ccccc3)OCc3ccccc3)CC2)NC(=O)OC2COC3OCCC23)cc1` (stereo not drawn), the EC50 is < 50 nM.

`CCOP(=O)(CCN1CCN(CC(NC(=O)OC2COC3OCCC23)C(O)CN(CC(C)C)S(=O)(=O)c2ccc(OC)cc2)CC1)OCC` (stereo not drawn): the EC50 lay in the range of 50 to 500 nM. In the case of `COc1ccc(S(=O)(=O)N(CC(C)C)CC(O)C(CNc2ccc(CP(=O)(OCc3ccccc3)OCc3ccccc3)cc2)NC(=O)OC2COC3OCCC23)cc1` (stereo not drawn), the EC50 is < 50 nM. For `COc1ccc(S(=O)(=O)N(CC(C)C)CC(O)C(Cc2ccc(P(=O)(O)O)cc2)NC(=O)OC2COC3OCCC23)cc1` (stereo not drawn) [drawing 1770 R1=OH R2=OH], the EC50 is > 5000 nM. In the case of `CC(C)CN(CC(O)C(Cc1ccc(OCP(=O)(OCc2ccccc2)OCc2ccccc2)cc1)NC(=O)OC1COC2OCCC12)S(=O)(=O)c1ccccc1` (stereo not drawn), the EC50 is < 50 nM. Turning to `CCOP(=O)(Cc1ccc2c(c1)CCN(CC(NC(=O)OC1COC3OCCC13)C(O)CN(CC(C)C)S(=O)(=O)c1ccc(OC)cc1)C2)OCC` (stereo not drawn), the EC50 was < 50 nM. `CC(C)CN(CC(O)C(Cc1ccc(OCP(=O)(OCc2ccccc2)OCc2ccccc2)cc1)NC(=O)OC1COC2OCCC12)S(=O)(=O)c1ccc(F)cc1` (stereo not drawn): the EC50 was < 50 nM.

Still in this experiment, the particulars now being: Human immunodeficiency virus 1, IIIB, MT2, 120 h, read-out: Anti-HIV-1 Cell Culture Activity EC50.
For `CCCCOC(=O)CNP(=O)(COc1ccc(CC(NC(=O)OC2COC3OCCC23)C(O)CN(CC(C)C)S(=O)(=O)c2ccc(OC)cc2)cc1)NCC(=O)OCCCC` (stereo not drawn) [Compound 16b], the EC50 turned out to be 17.5 ± 10.5 nM.

Still in this experiment, the particulars now being: Human immunodeficiency virus 1, IIIB, class symbols.
On to `COC(=O)C(C)OP(=O)(COc1ccc(CC(NC(=O)OC2COC3OCCC23)C(O)CN(CC(C)C)S(=O)(=O)c2ccc(OC)cc2)cc1)Oc1ccccc1` [drawing 1775 R1=OPh R2=(R)Lac-Me], for which the EC50 was < 50 nM.

In the case of `COc1ccc(S(=O)(=O)N(CC(C)C)CC(O)C(Cc2ccc(NCP(=O)(NC(C)C(=O)OC(C)C)Oc3ccccc3)cc2)NC(=O)OC2COC3OCCC23)cc1` (stereo not drawn) [drawing 1820], the EC50 was < 50 nM.

Compound `CCOC(=O)C(C)OP(=O)(COc1ccc2c(c1)CCN(CC(NC(=O)OC1COC3OCCC13)C(O)CN(CC(C)C)S(=O)(=O)c1ccc(OC)cc1)C2)Oc1ccccc1` (stereo not drawn) came in with an EC50 of 50 to 500 nM.

Still in this experiment, the particulars now being: class symbols.
As for `COc1ccc(S(=O)(=O)N(CC(C)C)CC(O)C(Cc2ccc(NCP(=O)(NC(C)C(=O)OC(C)C)Oc3ccccc3)cc2)NC(=O)OC2COC3OCCC23)cc1` (stereo not drawn) [drawing 1822], the EC50 was < 50 nM.

The same experiment, now with this note: read-out: Anti-HIV-1 Cell Culture Activity EC50.
Consider `COc1ccc(S(=O)(=O)N(CC(C)C)CC(O)C(Cc2ccc(OCP(=O)(O)NC(C)C(=O)O)cc2)NC(=O)OC2COC3OCCC23)cc1` (stereo not drawn) [Met X], for which the EC50 was > 10000 nM. `CCOC(=O)C(C)OP(=O)(O)COc1ccc(CC(NC(=O)OC2COC3OCCC23)C(O)CN(CC(C)C)S(=O)(=O)c2ccc(OC)cc2)cc1` (stereo not drawn) [Met LX]: the EC50 turned out to be 1750 ± 354 nM. Still for that read-out and setting: to `CCOC(=O)C(Cc1ccccc1)NP(=O)(COc1ccc(CC(NC(=O)OC2COC3OCCC23)C(O)CN(CC(C)C)S(=O)(=O)c2ccc(OC)cc2)cc1)NC(Cc1ccccc1)C(=O)OCC` (stereo not drawn) [Example 16i] belongs 17 ± 12 nM.

The EC50 is the concentration at which the effect is half-maximal.
